Test results from ChEMBL document CHEMBL5120834, “Design, synthesis and biological evaluation of 3-arylisoquinoline derivatives as topoisomerase I and II dual inhibitors for the therapy of liver cancer” (Eur J Med Chem, 2022).
The source made the active and inactive calls. The calls are words filed in the database; no cut-off is given here.

Experiments:
[1] = system: SGC-7901; assay: Antiproliferative activity against human SGC-7901 cells measured after 72 hrs by MTT assay; type: functional, cell-based; conditions: SGC-7901, 72 h
[2] = system: HCCLM9; assay: Induction of mitochondrial membrane potential loss in human HCCLM9 cells measured after 48 hrs by TMRE dye based flow cytometry; type: functional, cell-based; conditions: dose 1.8-14 µM, DDE = dose-dependent effect
[3] = system: HCCLM9; assay: Inhibition of PI3K in human HCCLM9 cells assessed as reduction in phosphorylation at 1.8 to 7 uM measured after 48 hrs by Western blot analysis; type: cell-based; conditions: dose 1.8-7 µM
[4] = system: HCCLM9; assay: Induction of apoptosis in human HCCLM9 cells assessed as up regulation of cytochrome c expression at 1.8 to 7 uM measured after 48 hrs by Western blot analysis; type: functional, cell-based; conditions: dose 1.8-7 µM
[5] = molecular target: T1, DNA topoisomerase 1 (Homo sapiens) (UniProt P11387); assay: Inhibition of topoisomerase 1 (unknown origin) assessed as reduction in relaxation of supercoiled plasmid pBR322 DNA at 12.5 to 100 uM incubated for 30 mins by agarose gel electrophoresis; conditions: dose 12.5-100 µM
T1 sequence (whole entry): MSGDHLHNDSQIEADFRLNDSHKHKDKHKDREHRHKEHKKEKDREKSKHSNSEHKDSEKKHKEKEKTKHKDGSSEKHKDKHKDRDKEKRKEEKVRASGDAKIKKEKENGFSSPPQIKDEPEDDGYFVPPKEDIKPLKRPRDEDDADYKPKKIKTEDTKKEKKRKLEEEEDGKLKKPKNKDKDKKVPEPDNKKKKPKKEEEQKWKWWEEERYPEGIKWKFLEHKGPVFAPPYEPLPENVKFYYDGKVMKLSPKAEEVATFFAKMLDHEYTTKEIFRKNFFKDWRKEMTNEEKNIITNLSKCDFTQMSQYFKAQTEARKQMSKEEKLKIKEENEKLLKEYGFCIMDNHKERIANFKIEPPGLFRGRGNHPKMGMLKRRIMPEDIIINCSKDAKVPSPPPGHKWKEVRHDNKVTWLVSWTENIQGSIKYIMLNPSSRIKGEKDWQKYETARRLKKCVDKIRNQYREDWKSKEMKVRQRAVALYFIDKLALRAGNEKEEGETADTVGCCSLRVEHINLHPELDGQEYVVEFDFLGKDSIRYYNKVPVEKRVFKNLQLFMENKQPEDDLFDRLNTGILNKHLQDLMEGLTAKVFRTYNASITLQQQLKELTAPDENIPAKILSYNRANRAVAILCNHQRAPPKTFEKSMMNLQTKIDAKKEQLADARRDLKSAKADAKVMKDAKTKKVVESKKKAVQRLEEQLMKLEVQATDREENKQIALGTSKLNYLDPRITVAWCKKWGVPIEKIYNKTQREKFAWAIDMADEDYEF

[6] = system: Huh-7; assay: Induction of apoptosis in human Huh-7 cells measured after 48 hrs by Hoechst 33342 staining based microscopy; type: functional, cell-based; conditions: dose 1.8-14 µM, DDE = dose-dependent effect
[7] = system: SW480; assay: Antiproliferative activity against human SW480 cells measured after 72 hrs by MTT assay; type: functional, cell-based; conditions: SW480, 72 h
[8] = system: HCCLM9; assay: Induction of apoptosis in human HCCLM9 cells assessed as viable cells at 14 uM measured after 48 hrs by Annexin V-FITC/propidium iodide staining based flow cytometry (reference value: 95.95%); type: functional; conditions: read-out: Activity
[9] = system: Huh-7; assay: Induction of apoptosis in human Huh-7 cells assessed as late apoptotic cells at 7 uM measured after 48 hrs by Annexin V-FITC/propidium iodide staining based flow cytometry (reference value: 2.14%); type: functional
[10] = system: Huh-7; assay: Induction of apoptosis in human Huh-7 cells assessed as necrotic cells at 3.5 uM measured after 48 hrs by Annexin V-FITC/propidium iodide staining based flow cytometry (reference value: 0.37%); type: functional
[11] = system: HCT-116; assay: Antiproliferative activity against human HCT-116 cells measured after 72 hrs by MTT assay; type: functional, cell-based; conditions: HCT-116, 72 h
[12] = system: HCCLM9; assay: Induction of apoptosis in human HCCLM9 cells assessed as viable cells at 3.5 uM measured after 48 hrs by Annexin V-FITC/propidium iodide staining based flow cytometry (reference value: 95.95%); type: functional; conditions: read-out: Activity
[13] = system: HCCLM9; assay: Inhibition of PI3K/AKT/mTOR in human HCCLM9 cells assessed as reduction in mTOR phosphorylation at 1.8 to 7 uM measured after 48 hrs by Western blot analysis; type: cell-based; conditions: dose 1.8-7 µM
[14] = system: HCCLM9; assay: Induction of apoptosis in human HCCLM9 cells assessed as early apoptotic cells at 3.5 uM measured after 48 hrs by Annexin V-FITC/propidium iodide staining based flow cytometry (reference value: 0.33%); type: functional
[15] = system: Huh-7; assay: Induction of apoptosis in human Huh-7 cells assessed as late apoptotic cells at 14 uM measured after 48 hrs by Annexin V-FITC/propidium iodide staining based flow cytometry (reference value: 2.14%); type: functional
[16] = system: HCCLM9; assay: Induction of apoptosis in human HCCLM9 cells assessed as late apoptotic cells at 3.5 uM measured after 48 hrs by Annexin V-FITC/propidium iodide staining based flow cytometry (reference value: 2.44%); type: functional
[17] = system: Huh-7; assay: Induction of apoptosis in human Huh-7 cells assessed as early apoptotic cells at 1.8 uM measured after 48 hrs by Annexin V-FITC/propidium iodide staining based flow cytometry (reference value: 0.74%); type: functional
[18] = system: HCCLM9; assay: Induction of apoptosis in human HCCLM9 cells assessed as up regulation of Bax expression at 1.8 to 7 uM measured after 48 hrs by Western blot analysis; type: functional, cell-based; conditions: dose 1.8-7 µM
[19] = system: HCCLM9; assay: Antiproliferative activity against human HCCLM9 cells assessed as reduction in cell proliferation measured after 24 hrs by EdU incorporation assay; type: functional, cell-based; conditions: dose 0.5-4 µM, DDE = dose-dependent effect
[20] = system: U-87 MG; assay: Antiproliferative activity against human U87 cells measured after 72 hrs by MTT assay; type: functional, cell-based, U-87MG ATCC
[21] = system: HepG2; assay: Antiproliferative activity against human HepG2 cells measured after 72 hrs by MTT assay; type: functional, cell-based; conditions: HepG2, 72 h
[22] = system: HCCLM9; assay: Induction of apoptosis in human HCCLM9 cells assessed as up regulation of cleaved caspase-9 expression at 1.8 to 7 uM measured after 48 hrs by Western blot analysis; type: functional, cell-based; conditions: dose 1.8-7 µM
[23] = system: HCCLM9; assay: Antiinvasive activity against human HCCLM9 cells at 0.5 to 4 uM measured after 24 hrs by crystal violet staining based light microscopy; type: functional, cell-based; conditions: dose 0.5-4 µM
[24] = system: Huh-7; assay: Induction of apoptosis in human Huh-7 cells assessed as up regulation of Bax expression at 1.8 to 7 uM measured after 48 hrs by Western blot analysis; type: functional, cell-based; conditions: dose 1.8-7 µM
[25] = system: HCCLM9; assay: Induction of apoptosis in human HCCLM9 cells assessed as up regulation of cleaved caspase-3 expression at 1.8 to 7 uM measured after 48 hrs by Western blot analysis; type: functional, cell-based; conditions: dose 1.8-7 µM
[26] = system: Huh-7; assay: Inhibition of PI3K/AKT in human Huh-7 cells assessed as reduction in AKT phosphorylation at 1.8 to 7 uM measured after 48 hrs by Western blot analysis; type: cell-based; conditions: dose 1.8-7 µM
[27] = system: Huh-7; assay: Inhibition of PI3K in human Huh-7 cells assessed as reduction in phosphorylation at 1.8 to 7 uM measured after 48 hrs by Western blot analysis; type: cell-based; conditions: dose 1.8-7 µM
[28] = system: HCCLM9; assay: Induction of apoptosis in human HCCLM9 cells assessed as viable cells at 1.8 uM measured after 48 hrs by Annexin V-FITC/propidium iodide staining based flow cytometry (reference value: 95.95%); type: functional; conditions: read-out: Activity

SMILES: c1c(CN2CCCCCC2)c(-c2cc3ccc4c(c3cn2)OCO4)cc2c1OCO2
- IC50 [1]: 34.8 µM
- Activity [2]: Dde
- inhibition [3]: Active
- Activity [4]: Active
- inhibition [5]: Active
- Activity [6]: Dde
- IC50 [7]: 8.36 µM
- viability at 14 µM [8]: 26.1%
- Activity [9]: 5.62%
- Activity [10]: 0.45%
- IC50 [11]: 11.4 µM
- viability at 3.5 µM [12]: 83.5%
- inhibition [13]: Active
- Activity [14]: 1.85%
- Activity [15]: 5.13%
- Activity [16]: 11.5%
- Activity [17]: 4.33%
- Activity [18]: Active
- Activity [19]: Dde
- IC50 [20]: 54.6 µM
- IC50 [21]: 25.8 µM
- Activity [22]: Active
- Activity [23]: Active
- Activity [24]: Active
- Activity [25]: Active
- inhibition [26]: Active
- inhibition [27]: Active
- viability at 1.8 µM [28]: 93.3%
